In ChEMBL document CHEMBL1151615, “Trichothecenes, 1: The synthesis of 4-deoxyverrucarol from verrucarol and diacetoxyscirpenol” (J Nat Prod, 1984):
≈ marks a conversion by molar mass, not a printed value.

Legend:
[1] = Toxicity in mouse assessed as 50% inhibition of protein synthesis; type: organism-based; conditions: in vivo, read-out: Activity
[2] = organism: Mus musculus; test: Skin toxicity in mouse; type: organism-based; conditions: in vivo

Compound | IC50 [1] [µg/mL] | MED [2]
CC(=O)OC[C@]12C[C@H](OC(=O)CC(C)C)C(C)=C[C@H]1O[C@@H]1[C@H](O)[C@@H](OC(C)=O)[C@@]2(C)[C@]12CO2 [T-2 TOXIN] | 0.005 (≈ 0.0107 µM) | 50.2 ng
CC1=C[C@H]2O[C@@H]3CC[C@](C)([C@@]2(CO)CC1)[C@]31CO1 [DEOXYVERRUCAROL] | 62.2 (≈ 248 µM) | >= 500 ng
CC1=C[C@H]2O[C@@H]3C[C@@H](O)[C@](C)([C@@]2(CO)CC1)[C@]31CO1 [VERRUCAROL] | 15.8 (≈ 59.3 µM) | >= 500 ng
